Like-named read-outs stand apart in the source and are kept apart here.
Tests used:
[1] = system: 'Tegan Blue' Japanese plum fruit; assay: Climacteric ethylene production in 'Tegan Blue' plum fruit after fumigation; type: in vivo; settings: for level of climacteric ethylene, suppressed, fold in comparison to the solely ethylene treated fruit: then ethylene 10 μL L^-1 24 hr, 'Tegan Blue' plum, P≤0.05
Description: Mature ‘Tegan Blue’ and ‘Fortune’ Japanese plum and ‘Arctic Pride’ nectarine fruits of uniform size and maturity, free from visual blemishes and diseases were harvested in early morning from a commercial orchard in Western Australia. Following the harvest, the fruit were brought to the Horticulture Research Laboratory, Curtin University, using a temperature controlled vehicle at 20-25° C. The fruit were treated by fumigation with 0 to 100 nLL^−1 of BC and 1000 nLL^−1 of 1-MCP (Tegan Blue plum) for 18 hr at ambient conditions (20±1° C. and 65±5% RH) by using hermetically sealed plastic containers of 60 L volume. Whatman filter paper (number 2) soaked with specific concentrations of BC and 1-MCP were kept along with the fruit and 30 g of soda lime inside each container. A small battery operated fan was used to ensure equal distribution of the vapours from the chemicals. Half of the treated fruit was exposed to ethylene (10 μL L^−1) for 24 hr following BC and 1-MCP treatment.
The endogenous level of ethylene was determined by using the Sensor Sense (Sensor sense B. V, Nijmegen, The Netherlands). The Sensor Sense includes an ETD 300 ethylene detector, a set of valve controllers with an option of six valves connected to six separate cuvettes [1.0 L air-tight jar, fitted with a rubber septum (SubaSeal®, Sigma-Aldrich Co., St. Louis, USA)]. The continuous flow method was used with coarse mode (conversion factor 99818, capacity to measure ethylene concentration at 0-500 ppm, sensitivity at <1%) of analysis. Each sample was run for 20 minutes with a flow rate of 4.0 L hour^−1 and the average reading of last 15 minutes was considered to calculate the concentration of ethylene and expressed as μmol […] h^−1.
(§1) The experimental data were analysed following one-way analysis of variance (ANOVA) by using Genstat 13 (release 13.1; Lawes Agricultural Trust, Rothamsted Experimental Station, Harpenden, UK). The effects of various treatments and their interactions were assessed and least significant differences (Fisher's LSD) were calculated by F test at 5% level of significance.

[2] = system: 'Tegan Blue' Japanese plum fruit; assay: Climacteric respiration (CO2 production) in 'Tegan Blue' plum fruit; type: in vivo
Description: (§2) Mature ‘Tegan Blue’ and ‘Fortune’ Japanese plum and ‘Arctic Pride’ nectarine fruits of uniform size and maturity, free from visual blemishes and diseases were harvested in early morning from a commercial orchard in Western Australia. Following the harvest, the fruit were brought to the Horticulture Research Laboratory, Curtin University, using a temperature controlled vehicle at 20-25° C. The fruit were treated by fumigation with 0 to 100 nLL^−1 of BC and 1000 nLL^−1 of 1-MCP (Tegan Blue plum) for 18 hr at ambient conditions (20±1° C. and 65±5% RH) by using hermetically sealed plastic containers of 60 L volume. […]
(§3) Respiration rate was determined as carbon dioxide (CO2) production from the fruit during ripening period a using CO2 analyser. […] The respiration rate was calculated on the basis of the peak areas of 2.0 mL gas sample and CO2 standard (8.52±0.17%) and expressed as mmoL CO2 […] h^−1.
as §1

[3] = gas at room temperature; background statement; cited from earlier work
[4] = system: 'Arctic Pride' nectarine fruit; assay: Climacteric ethylene production in 'Arctic Pride' nectarine fruit after fumigation; type: in vivo; settings: 50 nLL^-1 fumigation, then ethylene 10 μL L^-1
Description: as §2
The endogenous level of ethylene was determined by using the Sensor Sense (Sensor sense B. V, Nijmegen, The Netherlands). […] Each sample was run for 20 minutes with a flow rate of 4.0 L hour^−1 and the average reading of last 15 minutes was considered to calculate the concentration of ethylene and expressed as μmol […] h^−1.
as §1

[5] = system: 'Arctic Pride' nectarine fruit; assay: Climacteric respiration (CO2 production) in 'Arctic Pride' nectarine fruit; type: in vivo
Description: as §2, §3, §1

[6] = Stability at room temperature; type: physicochemical
WX17 wax flower = assay: Flower/bud abscission in WX17 wax flower; type: in vivo, Chamelaucium Desf.; settings: 100 nLL^-1 fumigation followed by ethylene 10 μLL^-1
Description: (§4) To evaluate the effects of BC and NC on flower abscission, flowering stems of Wax flower (Chamelaucium Desf.) (WX17, WX73 and WX107) were collected from mature bushes grown at Department of Agriculture and Food Western Australia (DAFWA), Perth (31° 58′ 55″ S/115° 51′ 47″ E). Collected stems were immediately placed upright in buckets with water and recut at 20-25 cm in length (from the cut end to the most extreme opened-flowers). The flower stalks were treated similarly as the fruits with BC (0-100 nLL^−1) or NC (0-100 nLL^−1) and ethylene. The experiments were laid out by following CRD design, having five replications for each treatment and five stalks in each replication. During the treatment period, the flower stalks were placed in small plastic bottles with distilled water. A cone made of nylon mesh was placed at the base of the stalks to check the number of abscised flowers. […]
as §1

WX73 wax flower = assay: Flower/bud abscission in WX73 wax flower; type: in vivo, Chamelaucium Desf.
Description: as §4, §1

Solubility in water = type: physicochemical

Row | Compound | level of climacteric ethylene, suppressed, fold in comparison to the solely ethylene treated fruit ([1]; 1000 nLL^-1 fumigation 18 hr) [fold] | climacteric respiration, suppressed, fold versus the solely ethylene treated fruit ([2]; 1000 μLL^-1 (so in the source) fumigation + ethylene) [fold] | stability [3] | level of ethylene, suppressed, fold versus the solely ethylene treated fruit [4] [fold] | respiration climacteric, suppression, fold in comparison to the solely ethylene treated fruit ([5]; 50 nLL^-1 fumigation + ethylene) [fold] | respiration climacteric, suppression, fold in comparison to the solely ethylene treated fruit ([5]; 50 nLL^-1 fumigation, no ethylene exposure) [fold] | stability [6] | level of climacteric ethylene, suppressed, fold in comparison to the solely ethylene treated fruit ([1]; 100 nLL^-1 fumigation 18 hr) [fold] | difference between effects of BC (100 nL L^-1) and 1-MCP (1000 nL L^-1) on climacteric ethylene and respiration ([1]; 'Tegan Blue' and 'Fortune' plum, 'Arctic Pride' nectarine, ethylene and respiration) | rate of flower/bud abscission (WX17 wax flower) [%] | rate of flower/bud abscission (WX73 wax flower; 50 nL L^-1 fumigation followed by ethylene) [%] | rate of flower/bud abscission (WX73 wax flower; 100 nL L^-1 fumigation followed by ethylene) [%] | climacteric respiration, suppressed, fold versus the solely ethylene treated fruit ([2]; 100 nLL^-1 fumigation + ethylene) [fold] | solubility in water (Solubility in water)
1 | CC1=CC1 [1-MCP, 1-Methylcyclopropene, reference compound] | 0.70 | 0.77 | highly unstable | – | – | – | – | – | – | – | – | – | – | –
2 | c1ccc2c(c1)C2 [BC, benzocyclopropene] | – | – | – | 0.63 | 0.77 | 0.71 | stable at room temperature for several months | 0.80 | non-significant differences | 6.05 | 22.43 | 28.40 | 0.83 | only partially soluble in water
